According to US20130295060A1, “METHOD FOR CULTURING CARDIAC PROGENITOR CELLS AND USE OF CARDIAC PROGENITOR CELLS” (Ewha University-Industry Collaboration Foundation, priority 2012, published 2013):

Assays:
cardiac progenitor cells [1] = test: Effect of concentration of antifibrinolytic agent on cardiac progenitor cell-induced degradation of hydrogel (toluidine blue); type: cell-based; conditions: 0.5 or 1.0 mg/ml, 1 day culture
Procedure: 100 μl of the fibrinogen solution containing cardiac progenitor cells was added to 100 μl of each of the respective thrombin solutions containing aminomethylbenzoic acid in concentrations of […], 0.5, and 1.0 mg/ml. After complete formation of hydrogel, cardiac progenitor cells were cultured for 1 day, fixed with formalin, and stained with toluidine blue. An examination was made of the states of the fibrin hydrogels and cells.

[2] = test system: cardiac progenitor cell-induced fibrinolysis; test: Inhibition of antifibrinolytic agents against cardiac progenitor cell-induced fibrinolysis (fibrin hydrogel degradation, Alexa Fluor 488-fibrinogen release); type: cell-based
Procedure: The cardiac progenitor cells were mixed at a density of 2×10^5 cells per 100 μl of each of the four fibrinogen solutions with 100 μl of the thrombin solution, followed by a cross-linking reaction for 2 hrs. Following the formation of hydrogel, 300 μl of a cell culture was added to the hydrogel, and incubated for 1 day. A hydrogel void of cardiac progenitor cells was prepared for use as a control.
Antifibrinolytic agents were purchased from Sigma.

myocardial fragments = test: Organ culture of myocardial fragments in fibrin hydrogel with antifibrinolytic agent (phase-contrast microscopy); type: cell-based, human; conditions: 100 μg/ml solution added to fibrinogen solution, organ culture 3 days
Procedure: Four fibrinogen solutions with respective concentrations of 2.5, 5.0, 10.0, and 20.0 mg/ml were prepared, and each was added with a 100 μg/ml aminomethylbenzoic acid or tranexamic acid solution, as in Example 5. From the heart of a brain-dead patient, the myocardium was taken after the removal of both the epicardium and the endocardium. […] The myocardial fragments were added at a density of 10 per 0.5 ml of a 1 unit/ml thrombin solution. Each of the four fibrinogen solutions was mixed at a volume ratio of 1:1 with the thrombin solution containing the cardiac fragments. The resulting mixture was aliquoted in an amount of 1 ml per well into 6-multiwell tissue culture plates before performing a polymerization and cross-linking reaction to form a hydrogel.

cardiac progenitor cells [3] = test: Suspension cell culture assay for differentiation into cardiomyocytes (real-time PCR); type: cell-based; conditions: 1 mM in medium, 1 and 3 days
Procedure: A suspension of cardiac progenitor cells in a medium inducing myocardial differentiation was seeded at a density of 20,000 to 100,000 cells/well into polymer-coated 24-multiwell tissue culture plates preventive of cell and protein adhesion (Ultra-Low Attachment Surface, Corning, Lowell, Mass.). The medium was supplemented with 1 mM Wnt3a or Dkk1 before culturing the cardiac progenitor cells in a suspension culture condition or a monolayer culture condition. After culturing for 1 and 3 days, RNA was isolated from the cardiac progenitor cells and used to synthesize cDNA. Real-time PCR was performed on this cDNA to quantify mRNA levels of bone morphogenetic protein 2 (BMP2), SOX17, ANP, α-MHC, β-MHC, MLC2a, and MLC2v (myosin light chain-2 ventricle), which are involved in the formation of cardiospheres or the Wnt signaling pathway, thus evaluating the potential to differentiate into cardiomyocytes.

Molecule	mRNA levels of ANP, α-MHC, β-MHC, MLC-2a and MLC2v (cardiac progenitor cells [3])	mRNA levels of BMP2 and SOX17 (cardiac progenitor cells [3])	also measured
NCc1ccc(C(=O)O)cc1 [aminomethylbenzoic acid]			cytotoxicity to the cardiac progenitor cells (cardiac progenitor cells [1]): caused cytotoxicity
NC[C@H]1CC[C@H](C(=O)O)CC1 [tranexamic acid]			antifibrinolytic activity compared with aminocaproid acid or aprotinin [2]: three times as high; hydrogel as cell adhesion substrate during organ culture of myocardial fragments (myocardial fragments): stable, three-dimensional cell adhesion substrates
aprotinin			degradation of fibrin hydrogel by cardiac progenitor cells ([2]; hydrogel containing the antifibrinolytic agent, cardiac progenitor cells embedded, incubated 1 day): 95%
Wnt3a: factor of the Wnt signaling pathway added to the differentiation medium (protein, UniProt P56704 19-352, looked up) Protein Wnt-3a: SYPIWWSLAVGPQYSSLGSQPILCASIPGLVPKQLRFCRNYVEIMPSVAEGIKIGIQECQHQFRGRRWNCTTVHDSLAIFGPVLDKATRESAFVHAIASAGVAFAVTRSCAEGTAAICGCSSRHQGSPGKGWKWGGCSEDIEFGGMVSREFADARENRPDARSAMNRHNNEAGRQAIASHMHLKCKCHGLSGSCEVKTCWWSQPDFRAIGDFLKDKYDSASEMVVEKHRESRGWVETLRPRYTYFKVPTERDLVYYEASPNFCEPNPETGSFGTRDRTCNVSSHGIDGCDLLCCGRGHNARAERRREKCRCVFHWCCYVSCQECTRVYDVHTCK	increased	increased	
Dkk1: factor of the Wnt signaling pathway added to the differentiation medium (protein, UniProt O94907 32-266, looked up) Dickkopf-related protein 1: TLNSVLNSNAIKNLPPPLGGAAGHPGSAVSAAPGILYPGGNKYQTIDNYQPYPCAEDEECGTDEYCASPTRGGDAGVQICLACRKRRKRCMRHAMCCPGNYCKNGICVSSDQNHFRGEIEETITESFGNDHSTLDGYSRRTTLSSKMYHTKGQEGSVCLRSSDCASGLCCARHFWSKICKPVLKEGQVCTKHRRKGSHGLEIFQRCYCGEGLSCRIQKDHHQASNSSRLHTCQRH	reduced	decreased	
